The record followed here is PubChem BioAssay (NCI).

Among the test systems are MOLT-4 leukemia; HT29 colon; M14 melanoma; MDA-MB-435; IGROV1 ovarian; LOX IMVI melanoma; NCI-H460 lung; 786-0 renal; OVCAR-8 ovarian; NCI-H522 lung.
Common to all, as to assay: NCI anticancer screen, dose series, 48 h

Structures are written as SMILES. Where “and” joins values, the source holds several entries; their conditions need not be identical. Equal entries are not always repeated.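 Dose response: 5 concentrations. Exposure: 48 h. Format: 96-well plates. Endpoint: linear interpolation; highest concentration if not reached. GI50 = concentration required for 50% inhibition of growth. TGI: concentration producing complete growth inhibition.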

As to `CCN1c2ccccc2C(Cl)(c2ccc(N(C)C)cc2)c2ccccc21`, the GI50 with MOLT-4 leukemia is 3.27 µM; in the assay on HT29 colon it was 2.88 µM; in the assay with M14 melanoma, 5.97 µM; with MDA-MB-435, 3.34 µM; in the assay on IGROV1 ovarian, 2.61 µM; in the assay on LOX IMVI melanoma it was 3.67 µM. The values for the GI50 with NCI-H460 lung and in the assay with 786-0 renal were 7.77 µM and 10.7 µM, respectively. Also, the TGI came out at 15.2 µM in the assay with MOLT-4 leukemia; 12.4 µM in the assay on HT29 colon; 20.2 µM in the assay on M14 melanoma; 14 µM with MDA-MB-435; 7.98 µM in the assay on IGROV1 ovarian; 13.6 µM in the assay on LOX IMVI melanoma. The figures for the TGI with NCI-H460 lung and with 786-0 renal were 23.4 µM and 22.7 µM, respectively.

For `CC(=O)OCC1OC(OC2CC3C(C)(C)C(O)CC[C@]3(C)C3CCC45CC4(CC[C@H]5C(C)CC(O)C4OC4(C)C)[C@]23C)C(O)C(O)C1O` (stereo not given in full), the GI50 with MOLT-4 leukemia is 3.01 µM; in the assay on HT29 colon it was 12.9 µM; in the assay with M14 melanoma, 5.37 µM; in the assay on OVCAR-8 ovarian, 8.97 µM; with IGROV1 ovarian, 5.91 µM; in the assay on LOX IMVI melanoma it was 1.52 µM. Further, the GI50 in the assay with NCI-H460 lung is 5.08 µM; with NCI-H522 lung, 5.75 µM; with 786-0 renal, 5.67 µM. Besides, the TGI is 2.34 µM and 7.26 µM in the assay on MOLT-4 leukemia; 15.7 µM and 27.7 µM with HT29 colon; 16 µM and 17.2 µM in the assay on M14 melanoma; 14.4 µM and 23.8 µM with OVCAR-8 ovarian; 7.61 µM and 15.6 µM with IGROV1 ovarian; 12.1 µM and 3.17 µM in the assay with LOX IMVI melanoma. Moreover, the TGI was 16.8 µM and 20.4 µM with NCI-H460 lung; 11.8 µM and 19 µM with NCI-H522 lung; 14.9 µM and 18.9 µM with 786-0 renal.

As to `C1OC1CO[C@@H]1CO[C@H]2[C@@H]1OC[C@H]2OCC1CO1` (stereo not given in full), the TGI in the assay with MOLT-4 leukemia, in the assay on HT29 colon, with M14 melanoma, in the assay with OVCAR-8 ovarian, in the assay on IGROV1 ovarian and in the assay on LOX IMVI melanoma was greater than 100 µM in each case. In addition, the TGI in the assay with NCI-H460 lung, with NCI-H522 lung and with 786-0 renal was greater than 100 µM each time.

On to `COc1ccc(/C=C\c2cc(OC)c(OC)c(OC)c2)cc1OC(=O)CCC(=O)O`, for which the TGI with HT29 colon was 12.2 µM; with MDA-MB-435, less than 0.0001 µM; with OVCAR-8 ovarian, 69.6 µM; with IGROV1 ovarian, greater than 100 µM; in the assay with LOX IMVI melanoma it was greater than 100 µM; with NCI-H460 lung it was 31.5 µM. Moreover, in the assay on 786-0 renal, the TGI was greater than 100 µM. In addition, in the assay on 786-0 renal, the GI50 was 0.0121 µM.

For the compound `CCOC(=O)C1SC(=Nc2ccc(Cl)c(Cl)c2)N=C1C` (stereo not given), the TGI with MOLT-4 leukemia is greater than 100 µM; in the assay on HT29 colon, 66.8 µM; in the assay with M14 melanoma, greater than 100 µM; in the assay with OVCAR-8 ovarian it was greater than 100 µM; in the assay with IGROV1 ovarian, greater than 100 µM; in the assay on LOX IMVI melanoma, 63.9 µM. Also, the TGI with NCI-H460 lung is greater than 100 µM; in the assay with NCI-H522 lung, greater than 100 µM; with 786-0 renal, 31.3 µM.

Regarding `Cc1cc(NS(=O)(=O)c2ccc(NC(=O)c3cccc4c(Nc5ccc(S(=O)(=O)N=C(N)N)cc5)c5ccccc5nc34)cc2)no1`, the TGI in the assay on MOLT-4 leukemia, in the assay on HT29 colon, in the assay with M14 melanoma, in the assay with OVCAR-8 ovarian, with IGROV1 ovarian and with LOX IMVI melanoma was greater than 100 µM each time. In addition, the TGI in the assay on NCI-H460 lung, in the assay on NCI-H522 lung and with 786-0 renal was greater than 100 µM throughout.

For the compound `COc1ccc(C(=O)c2cc3c(OC)c(OC)c(OC)cc3[nH]2)cc1`, the GI50 in the assay on MOLT-4 leukemia was 3.51 µM; in the assay on HT29 colon it was 4 µM; in the assay on M14 melanoma, 3.69 µM; in the assay with OVCAR-8 ovarian, 33.7 µM; in the assay on IGROV1 ovarian, 9.68 µM; in the assay with LOX IMVI melanoma it was 4.91 µM. For the same compound, the GI50 was 3.26 µM with NCI-H460 lung, 1.55 µM in the assay with NCI-H522 lung and 11.9 µM with 786-0 renal. Moreover, the TGI in the assay on MOLT-4 leukemia, in the assay with HT29 colon, in the assay on M14 melanoma, with OVCAR-8 ovarian, with IGROV1 ovarian and in the assay with LOX IMVI melanoma was greater than 100 µM in each case. Moreover, the TGI in the assay with NCI-H460 lung is greater than 100 µM; in the assay with NCI-H522 lung, 6.04 µM; in the assay on 786-0 renal it was greater than 100 µM.

For `CC#CC1/C(=C\C(=O)OC)CCCC1O` (stereo not given), the TGI in the assay on MOLT-4 leukemia, in the assay on HT29 colon, in the assay on M14 melanoma, with OVCAR-8 ovarian, with NCI-H460 lung and with NCI-H522 lung was greater than 100 µM in each case. This compound also came in with a TGI with 786-0 renal greater than 100 µM.

`Cc1cc(=O)oc2cc(OCc3c(F)cccc3Cl)ccc12`: the TGI in the assay with M14 melanoma is greater than 100 µM; in the assay on MDA-MB-435, 3.5 µM; with OVCAR-8 ovarian, greater than 100 µM; in the assay with IGROV1 ovarian it was greater than 100 µM; with LOX IMVI melanoma, greater than 100 µM; in the assay with NCI-H522 lung, greater than 100 µM. Besides, in the assay on 786-0 renal, the TGI is 40.2 µM.

As for `Nc1c(C(=O)Nc2ccccc2)[n+]([O-])c2ccccc2[n+]1[O-]`, the TGI with MOLT-4 leukemia is greater than 100 µM; in the assay on HT29 colon, 37 µM; with M14 melanoma, 32.8 µM; in the assay with OVCAR-8 ovarian it was greater than 100 µM; with IGROV1 ovarian it was 44.8 µM; with LOX IMVI melanoma, 28.6 µM. Further, the TGI with NCI-H460 lung worked out at 35.7 µM; in the assay on NCI-H522 lung, 4.4 µM; in the assay on 786-0 renal it was 27.1 µM.

Regarding `O=C(C(=O)N1CC2C=CC1CC2)c1c[nH]c2ccccc12` (stereo not given), the TGI in the assay on MOLT-4 leukemia, in the assay with HT29 colon, with M14 melanoma, in the assay on OVCAR-8 ovarian, in the assay on IGROV1 ovarian and with LOX IMVI melanoma was greater than 100 µM each time. The TGI in the assay with NCI-H460 lung, in the assay with NCI-H522 lung and in the assay with 786-0 renal was greater than 100 µM each time.

For `CC1=CCC23C(C1)OC(Br)(C=CC2(C)O)C3(C)C` (stereo not given), the TGI with HT29 colon, with OVCAR-8 ovarian, in the assay with IGROV1 ovarian, in the assay on LOX IMVI melanoma, with NCI-H460 lung and with 786-0 renal was greater than 100 µM in each case.
